Results reported in ChEMBL document CHEMBL5233266, “β-Carboline as a Privileged Scaffold for Multitarget Strategies in Alzheimer's Disease Therapy” (J Med Chem, 2021).
pIC50: −log10 of the molar value. Values after ≈ are worked out from the molar mass of the structure shown.

Assays:
Acetylcholinesterase = Acetylcholinesterase (Homo sapiens, UniProt P22303); experiment: Inhibition of AChE (unknown origin)
[1] = target: cGMP-specific 3',5'-cyclic phosphodiesterase (Homo sapiens, UniProt O76074); experiment: Inhibition of PDE5 (unknown origin)
[2] = Aqueous solubility of compound; type: physicochemical; details: water
[3] = target: 5-hydroxytryptamine receptor 2A (Rattus norvegicus) (UniProt P14842); experiment: Displacement of [3H]-ketanserin from rat 5-HT2A expressed in mouse NIH/3T3 cells assessed as inhibition constant by Cheng-Prusoff equation analysis; type: cell-based
Chain of 5-hydroxytryptamine receptor 2A (Rattus norvegicus) (P14842 whole entry): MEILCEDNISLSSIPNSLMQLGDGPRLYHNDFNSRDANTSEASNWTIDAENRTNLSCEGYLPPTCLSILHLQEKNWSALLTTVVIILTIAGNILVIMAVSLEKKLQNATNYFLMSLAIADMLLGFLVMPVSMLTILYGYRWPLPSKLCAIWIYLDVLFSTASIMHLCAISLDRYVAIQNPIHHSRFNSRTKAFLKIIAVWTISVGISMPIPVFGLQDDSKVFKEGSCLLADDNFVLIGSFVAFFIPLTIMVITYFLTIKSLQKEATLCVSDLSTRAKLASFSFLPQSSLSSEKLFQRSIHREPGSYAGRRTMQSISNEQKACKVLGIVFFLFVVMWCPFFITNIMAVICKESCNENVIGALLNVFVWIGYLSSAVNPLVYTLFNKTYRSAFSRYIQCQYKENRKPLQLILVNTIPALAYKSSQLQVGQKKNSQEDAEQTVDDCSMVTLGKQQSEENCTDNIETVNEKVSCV

Cholinesterase [4] = target: T1, Cholinesterase (Homo sapiens, UniProt P06276); experiment: Inhibition of BuChE (unknown origin) assessed as inhibition of A-beta aggregation at 100 uM relative to control
T1 sequence (P06276 whole entry): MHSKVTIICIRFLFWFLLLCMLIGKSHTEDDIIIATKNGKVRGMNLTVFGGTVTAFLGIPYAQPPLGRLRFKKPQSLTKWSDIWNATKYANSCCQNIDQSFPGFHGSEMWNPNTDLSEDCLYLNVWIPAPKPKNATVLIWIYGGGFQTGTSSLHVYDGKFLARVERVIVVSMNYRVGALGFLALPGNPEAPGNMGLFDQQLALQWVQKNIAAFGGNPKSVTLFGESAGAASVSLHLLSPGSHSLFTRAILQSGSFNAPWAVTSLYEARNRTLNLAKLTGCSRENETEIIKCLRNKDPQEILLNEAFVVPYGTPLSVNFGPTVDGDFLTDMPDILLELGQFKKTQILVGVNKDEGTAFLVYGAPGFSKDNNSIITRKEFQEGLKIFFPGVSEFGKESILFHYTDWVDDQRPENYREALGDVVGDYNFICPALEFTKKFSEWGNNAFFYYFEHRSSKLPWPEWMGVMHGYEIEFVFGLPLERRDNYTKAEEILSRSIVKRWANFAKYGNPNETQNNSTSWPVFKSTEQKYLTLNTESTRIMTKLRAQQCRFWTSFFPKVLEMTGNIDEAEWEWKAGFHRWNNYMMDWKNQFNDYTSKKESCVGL

Histone deacetylase 1 = Histone deacetylase 1 (Homo sapiens, UniProt Q13547); experiment: Inhibition of HDAC1 (unknown origin)
Chain of Histone deacetylase 1 (Q13547 whole entry): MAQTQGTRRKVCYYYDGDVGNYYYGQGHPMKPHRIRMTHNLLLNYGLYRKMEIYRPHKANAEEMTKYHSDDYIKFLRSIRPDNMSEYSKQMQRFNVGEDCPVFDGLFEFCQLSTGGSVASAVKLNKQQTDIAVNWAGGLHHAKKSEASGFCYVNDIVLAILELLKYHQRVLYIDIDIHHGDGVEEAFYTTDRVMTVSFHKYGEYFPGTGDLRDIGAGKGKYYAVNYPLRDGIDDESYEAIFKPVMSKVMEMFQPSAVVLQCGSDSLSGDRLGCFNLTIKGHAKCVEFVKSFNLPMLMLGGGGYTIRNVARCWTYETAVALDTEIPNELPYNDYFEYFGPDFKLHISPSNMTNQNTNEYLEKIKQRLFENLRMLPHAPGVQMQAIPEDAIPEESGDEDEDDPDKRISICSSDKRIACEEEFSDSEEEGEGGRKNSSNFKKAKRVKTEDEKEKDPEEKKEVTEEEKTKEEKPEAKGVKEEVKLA

Histone deacetylase 2 = Histone deacetylase 2 (Homo sapiens, UniProt Q92769); experiment: Inhibition of HDAC2 (unknown origin)
Chain of Histone deacetylase 2 (Q92769 whole entry): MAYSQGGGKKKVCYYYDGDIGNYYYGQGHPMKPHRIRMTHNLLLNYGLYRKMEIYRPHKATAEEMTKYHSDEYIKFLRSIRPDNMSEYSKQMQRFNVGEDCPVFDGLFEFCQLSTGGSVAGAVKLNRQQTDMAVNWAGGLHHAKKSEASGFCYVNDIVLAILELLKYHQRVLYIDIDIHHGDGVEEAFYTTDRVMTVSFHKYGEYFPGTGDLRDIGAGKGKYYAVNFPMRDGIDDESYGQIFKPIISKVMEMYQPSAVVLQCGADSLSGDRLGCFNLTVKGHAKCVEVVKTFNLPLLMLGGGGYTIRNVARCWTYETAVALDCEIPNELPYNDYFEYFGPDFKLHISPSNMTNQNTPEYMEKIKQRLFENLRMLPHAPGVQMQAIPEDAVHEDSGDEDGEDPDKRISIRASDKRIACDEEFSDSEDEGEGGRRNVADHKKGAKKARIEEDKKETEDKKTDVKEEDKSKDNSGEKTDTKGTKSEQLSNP

[5] = target: T2, Protein deacetylase HDAC6 (Homo sapiens, UniProt Q9UBN7); experiment: Inhibition of HDAC6 (unknown origin)
T2 sequence (Q9UBN7 whole entry): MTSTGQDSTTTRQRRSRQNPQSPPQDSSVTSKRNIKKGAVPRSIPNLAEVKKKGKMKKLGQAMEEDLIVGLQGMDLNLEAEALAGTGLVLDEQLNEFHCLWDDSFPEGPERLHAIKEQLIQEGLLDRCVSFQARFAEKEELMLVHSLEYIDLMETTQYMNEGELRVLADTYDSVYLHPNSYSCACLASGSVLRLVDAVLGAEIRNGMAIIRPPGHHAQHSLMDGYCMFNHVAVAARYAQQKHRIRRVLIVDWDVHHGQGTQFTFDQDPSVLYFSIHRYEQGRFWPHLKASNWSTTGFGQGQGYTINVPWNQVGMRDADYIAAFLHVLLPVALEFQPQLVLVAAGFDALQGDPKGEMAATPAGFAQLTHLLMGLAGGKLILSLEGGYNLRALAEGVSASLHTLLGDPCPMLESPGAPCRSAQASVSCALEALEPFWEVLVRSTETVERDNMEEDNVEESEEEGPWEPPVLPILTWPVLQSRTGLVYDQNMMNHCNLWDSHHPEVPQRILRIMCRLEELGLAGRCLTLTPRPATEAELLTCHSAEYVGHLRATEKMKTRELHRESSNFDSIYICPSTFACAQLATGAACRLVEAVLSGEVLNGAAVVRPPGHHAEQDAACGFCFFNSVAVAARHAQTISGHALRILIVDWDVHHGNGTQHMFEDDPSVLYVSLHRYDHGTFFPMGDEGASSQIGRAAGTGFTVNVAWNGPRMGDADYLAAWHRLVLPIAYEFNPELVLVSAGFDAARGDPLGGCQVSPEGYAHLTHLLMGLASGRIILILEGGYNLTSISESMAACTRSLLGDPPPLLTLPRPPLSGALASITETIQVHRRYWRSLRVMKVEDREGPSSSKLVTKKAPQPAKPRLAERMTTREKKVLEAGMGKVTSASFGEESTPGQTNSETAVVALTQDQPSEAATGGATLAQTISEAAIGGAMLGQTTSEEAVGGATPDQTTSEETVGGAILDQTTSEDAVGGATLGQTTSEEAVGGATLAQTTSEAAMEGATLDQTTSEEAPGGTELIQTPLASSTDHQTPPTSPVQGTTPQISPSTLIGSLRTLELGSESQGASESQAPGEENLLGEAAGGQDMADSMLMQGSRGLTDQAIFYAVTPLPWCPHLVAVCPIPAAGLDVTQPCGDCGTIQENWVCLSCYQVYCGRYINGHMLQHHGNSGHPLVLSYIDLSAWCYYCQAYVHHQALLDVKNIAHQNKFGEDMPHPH

Beta-secretase 1 = Beta-secretase 1 (Homo sapiens, UniProt P56817); experiment: Inhibition of BACE1 (unknown origin) expressed in HEK293 cells by FRET assay; type: cell-based
Chain of Beta-secretase 1 (P56817 whole entry): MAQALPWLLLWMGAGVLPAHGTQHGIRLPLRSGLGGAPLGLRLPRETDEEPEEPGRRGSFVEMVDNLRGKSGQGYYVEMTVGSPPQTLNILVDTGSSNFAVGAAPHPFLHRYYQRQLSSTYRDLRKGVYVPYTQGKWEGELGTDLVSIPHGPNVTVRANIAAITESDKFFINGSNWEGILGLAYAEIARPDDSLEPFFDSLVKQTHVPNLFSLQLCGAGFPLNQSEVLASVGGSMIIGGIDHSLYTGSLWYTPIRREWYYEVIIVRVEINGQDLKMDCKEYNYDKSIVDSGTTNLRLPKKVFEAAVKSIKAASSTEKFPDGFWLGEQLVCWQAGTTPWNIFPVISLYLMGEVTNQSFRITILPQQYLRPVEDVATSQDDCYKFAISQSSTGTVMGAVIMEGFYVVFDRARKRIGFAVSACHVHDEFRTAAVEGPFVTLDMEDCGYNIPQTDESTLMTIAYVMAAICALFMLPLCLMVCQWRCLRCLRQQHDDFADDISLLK

[6] = target: Amyloid-beta precursor protein (Homo sapiens) (UniProt P05067); experiment: Inhibition of amyloid beta (unknown origin) aggregation relative to control; details: concentration not given here
Chain of Amyloid-beta precursor protein (Homo sapiens) (P05067 whole entry): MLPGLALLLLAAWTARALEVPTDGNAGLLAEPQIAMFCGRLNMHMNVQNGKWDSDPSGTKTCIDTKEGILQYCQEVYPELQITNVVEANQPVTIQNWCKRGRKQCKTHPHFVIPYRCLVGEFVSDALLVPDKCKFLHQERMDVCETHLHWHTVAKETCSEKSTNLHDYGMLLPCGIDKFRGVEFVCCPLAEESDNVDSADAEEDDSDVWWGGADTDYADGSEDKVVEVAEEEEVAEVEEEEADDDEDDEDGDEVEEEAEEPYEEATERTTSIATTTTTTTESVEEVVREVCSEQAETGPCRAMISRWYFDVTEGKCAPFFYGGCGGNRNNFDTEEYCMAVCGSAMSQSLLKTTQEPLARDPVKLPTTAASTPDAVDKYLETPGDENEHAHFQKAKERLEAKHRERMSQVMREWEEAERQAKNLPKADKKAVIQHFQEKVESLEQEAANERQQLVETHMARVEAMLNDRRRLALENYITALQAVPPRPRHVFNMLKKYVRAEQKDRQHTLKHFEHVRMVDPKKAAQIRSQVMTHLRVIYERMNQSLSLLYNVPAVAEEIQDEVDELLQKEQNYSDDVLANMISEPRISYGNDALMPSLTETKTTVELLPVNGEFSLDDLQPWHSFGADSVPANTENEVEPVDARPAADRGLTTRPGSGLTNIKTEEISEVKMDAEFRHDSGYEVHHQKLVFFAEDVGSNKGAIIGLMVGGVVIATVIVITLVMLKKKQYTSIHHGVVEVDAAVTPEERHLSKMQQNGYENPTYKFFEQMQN

Cholinesterase [7] = target: T1, Cholinesterase; experiment: Inhibition of BuChE (unknown origin)
[8] = target: Amyloid-beta precursor protein (Homo sapiens) (UniProt P05067); experiment: Inhibition of amyloid beta (unknown origin) aggregation at 20 uM relative to control

Chain of Acetylcholinesterase (P22303 whole entry): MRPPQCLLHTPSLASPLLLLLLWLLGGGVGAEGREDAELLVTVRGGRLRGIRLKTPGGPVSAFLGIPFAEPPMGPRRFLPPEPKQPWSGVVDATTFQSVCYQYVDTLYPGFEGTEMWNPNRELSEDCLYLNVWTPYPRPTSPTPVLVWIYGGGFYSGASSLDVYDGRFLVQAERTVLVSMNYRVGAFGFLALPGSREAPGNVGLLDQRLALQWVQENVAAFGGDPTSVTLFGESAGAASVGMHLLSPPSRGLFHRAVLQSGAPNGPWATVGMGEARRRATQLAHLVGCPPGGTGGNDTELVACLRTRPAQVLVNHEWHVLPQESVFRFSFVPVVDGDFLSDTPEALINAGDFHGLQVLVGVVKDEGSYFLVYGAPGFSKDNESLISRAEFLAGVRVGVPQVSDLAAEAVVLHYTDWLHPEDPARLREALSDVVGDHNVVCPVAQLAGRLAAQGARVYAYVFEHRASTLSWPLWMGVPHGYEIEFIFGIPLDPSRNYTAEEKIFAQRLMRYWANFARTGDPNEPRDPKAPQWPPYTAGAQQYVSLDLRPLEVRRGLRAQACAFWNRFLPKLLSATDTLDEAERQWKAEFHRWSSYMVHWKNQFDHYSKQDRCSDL

Structure (SMILES): COc1ccc([C@@H]2c3[nH]c4ccccc4c3C[C@H]3C(=O)N(CCC4CCN(Cc5ccccc5)CC4)CC(=O)N23)cc1
- pIC50 (Acetylcholinesterase): 7.82
- pIC50 [1]: 5.49
- solubility [2]: 0.42 mg/mL (≈ 746 µM)

Structure (SMILES): COc1ccc([C@@H]2c3[nH]c4ccccc4c3C[C@@H]3C(=O)N(CCC4CCN(Cc5ccccc5)CC4)CC(=O)N23)cc1
- pIC50 (Acetylcholinesterase): 7.51
- pIC50 [1]: 6.70
- solubility [2]: 1.4 mg/mL (≈ 2490 µM)

Structure (SMILES): COc1cccc2[nH]c3c(c12)CCNC3
- K [3]: < 0.18 µM

Structure (SMILES): Cc1ccc2[nH]c3c4[n+](ccc3c2c1)-c1ccccc1C4=O
- inhibition (Cholinesterase [4]): 38%

Structure (SMILES): O=C(/C=C/c1ccc(N2CC(=O)N3C(Cc4c([nH]c5ccccc45)C3c3ccc4c(c3)OCO4)C2=O)cc1)NO (configuration not stated)
- pIC50 [1]: 6.92
- pIC50 (Histone deacetylase 1): < 5.60
- pIC50 (Histone deacetylase 2): < 5.60
- pIC50 [5]: < 5.60

Structure (SMILES): O=C(/C=C/c1ccc(O)c(O)c1)NCc1cn(C[C@@H]2Cc3c([nH]c4ccccc34)CN2)nn1
- pIC50 (Beta-secretase 1): < 4.30
- inhibition [6]: 30%

Structure (SMILES): CC1c2[nH]c3ccccc3c2CCN1C(=O)/C=C/c1ccc(O)c(O)c1 (configuration not stated)
- pIC50 (Acetylcholinesterase): 4.68
- pIC50 (Cholinesterase [7]): 5.89
- inhibition [8]: 72%
